Laboratory results: patent US4001218A, “Penicillins” (Bayer Aktiengesellschaft, priority 1972, dated 1977)

Assays:
Psdm. aerug. F 41 = test: MIC, test tube series dilution test, Psdm. aerug. F 41; assay type: cell-based, Pseudomonas aeruginosa; conditions: for MIC: Psdm. aerug. F 41, 24 hours, 37°C; for Activity against Psdm. aerug. F 41 (minimum inhibitory concentration): 24 hours' incubation
Proteus morg. 932 = test: MIC, test tube series dilution test, Proteus morg. 932; assay type: cell-based; conditions: 24 hours, 37°C
Psdm. aerug. Walter = test: MIC, test tube series dilution test, Psdm. aerug. Walter; assay type: cell-based, Pseudomonas aeruginosa; conditions: for MIC: Psdm. aerug. Walter, 24 hours, 37°C; for Activity against Psdm. aerug. Walter (minimum inhibitory concentration): 24 hours' incubation
Staph. aureus 133 = assay type: cell-based, Staphylococcus aureus; conditions: for MIC: Staph. aureus 133, 24 hours, 37°C; for Activity against Staph. aureus 133 (minimum inhibitory concentration): 24 hours' incubation
E. coli 14 = assay type: cell-based; conditions: for MIC: E. coli 14, 24 hours, 37°C; for Activity against E. coli 14 (minimum inhibitory concentration): 24 hours' incubation
E. coli A 261 = test: MIC, test tube series dilution test, E. coli A 261; assay type: cell-based; conditions: 24 hours, 37°C
Klebsiella 63 = test: MIC, test tube series dilution test, Klebsiella 63; assay type: cell-based; conditions: for MIC: Klebsiella 63, 24 hours, 37°C; for Activity against Klebs. 63 (minimum inhibitory concentration): 24 hours' incubation
Klebsiella K 10 = test: MIC, test tube series dilution test, Klebsiella K 10; assay type: cell-based; conditions: 24 hours, 37°C
Proteus vulg. 1017 = assay type: cell-based, Proteus vulgaris; conditions: for MIC: Proteus 1017, 24 hours, 37°C; for Activity against Proteus vulg. 1017 (minimum inhibitory concentration): 24 hours' incubation
E. coli C 165 = test: MIC, test tube series dilution test, E. coli C 165; assay type: cell-based; conditions: 24 hours, 37°C
Staph. aureus 1756 = test: MIC, test tube series dilution test, Staph. aureus 1756; assay type: cell-based, Staphylococcus aureus; conditions: for MIC: Staph. aureus 1756, 24 hours, 37°C
Enterococcus 9790 = test: MIC, test tube series dilution test, Enterococcus 9790; assay type: cell-based; conditions: 24 hours, 37°C
E. coli 183/58 = test: MIC, test tube series dilution test, E. coli 183/58; assay type: cell-based; conditions: 24 hours, 37°C

| SMILES | MIC (Psdm. aerug. F 41) | MIC (Proteus morg. 932) [U/ml] | MIC (Psdm. aerug. Walter) | MIC (Staph. aureus 133) [U/ml] | MIC (E. coli 14) | MIC (E. coli A 261) | MIC (Klebsiella K 10) [U/ml] | MIC (Enterococcus 9790) | also measured |
| --- | --- | --- | --- | --- | --- | --- | --- | --- | --- |
| CC1(C)S[C@@H]2[C@H](NC(=O)[C@H](NC(=O)CSc3ccc(NC=O)cc3)c3ccccc3)C(=O)N2[C@H]1C(=O)O [Example 59] | > 256 U/ml | > 256 | > 256 U/ml | < 1 | ~ 4 U/ml | > 256 U/ml |  |  |  |
| CNC(=O)Nc1ccc(C(=O)N[C@@H](C(=O)N[C@@H]2C(=O)N3[C@@H]2SC(C)(C)[C@@H]3C(=O)O)c2ccccc2)cc1 [Example 44] | ~ 64 U/ml |  |  | < 1 | ~ 8 U/ml |  | 256 | 4 U/ml | MIC (Klebsiella 63): 128 U/ml; MIC (Proteus vulg. 1017): > 256 U/ml; MIC (E. coli C 165): 16 U/ml; MIC (Staph. aureus 1756): 64 U/ml |
| Cc1cc(C)cc(C(=O)Nc2ccc(C(=O)N[C@@H](C(=O)N[C@@H]3C(=O)N4[C@@H]3SC(C)(C)[C@@H]4C(=O)O)c3ccccc3)cc2)c1 [Example 21] | ~ 16 U/ml |  |  | < 1 | < 1 U/ml | ~ 256 U/ml |  | ~ 4 U/ml | MIC (E. coli 183/58): ~ 1 U/ml |
| CC1(C)S[C@@H]2[C@H](NC(=O)[C@H](NC(=O)CNC(=O)c3ccc(NC(=O)C4CC4)cc3)c3ccccc3)C(=O)N2[C@H]1C(=O)O [Example 64] | 256 U/ml | > 256 |  |  |  | > 256 U/ml | 128 | 8 U/ml | MIC (Klebsiella 63): 64 U/ml; MIC (Proteus vulg. 1017): 64 U/ml; MIC (E. coli 183/58): 64 U/ml; MIC (E. coli C 165): 32 U/ml; MIC (Staph. aureus 1756): 16 U/ml |
| CC1(C)S[C@@H]2[C@H](NC(=O)[C@H](NC(=O)CSc3ccc(NC(=O)C4CCC4)cc3)c3ccccc3)C(=O)N2[C@H]1C(=O)O [Example 61] |  | > 256 | > 256 U/ml | < 1 |  | > 256 U/ml |  | ~ 16 U/ml |  |
| CC1(C)S[C@@H]2[C@H](NC(=O)[C@H](NC(=O)c3ccccc3NC(=O)C3CCC3)c3ccccc3)C(=O)N2[C@H]1C(=O)O [Example 50] |  |  |  | < 1 |  |  | > 256 |  |  |
| COCC(=O)Nc1ccc(C(=O)N[C@@H](C(=O)N[C@@H]2C(=O)N3[C@@H]2SC(C)(C)[C@@H]3C(=O)O)c2ccccc2)cc1 [Example 42] |  |  |  | < 1 |  |  | > 256 | ~ 4 U/ml | MIC (Proteus vulg. 1017): > 256 U/ml |
| CC1(C)S[C@@H]2[C@H](NC(=O)[C@H](NC(=O)c3ccc(NC(=O)Nc4ccc(F)cc4)cc3)c3ccccc3)C(=O)N2[C@H]1C(=O)O [Example 46] |  |  |  | < 1 | < 1 U/ml |  |  | ~ 4 U/ml | MIC (E. coli C 165): ~ 4 U/ml |
| CC1(C)S[C@@H]2[C@H](NC(=O)[C@H](NC(=O)c3ccc(NC(=O)C4CCCC4)cc3O)c3ccccc3)C(=O)N2[C@H]1C(=O)O [Example 77, sodium D(-)-α-(4-cyclopentanecarbonylamino-2-hydroxybenzoylamino)benzylpenicillin] |  |  |  |  |  |  |  |  | Activity against Klebs. 63 (minimum inhibitory concentration) (Klebsiella 63): 32-64 U/ml; Activity against Psdm. aerug. Walter (minimum inhibitory concentration) (Psdm. aerug. Walter): 8-16 U/ml; Activity against E. coli 14 (minimum inhibitory concentration) (E. coli 14): 2-4 U/ml; Activity against Staph. aureus 1756 (minimum inhibitory concentration) (Staph. aureus 1756; 24 hours' incubation): 32-64 U/ml |
| CC1(C)S[C@@H]2[C@H](NC(=O)[C@H](NC(=O)c3ccc(NC=O)c(NC=O)c3)c3ccccc3)C(=O)N2[C@H]1C(=O)O [Example 74] |  |  |  | < 1 |  |  | > 256 |  |  |
| CC1(C)S[C@@H]2[C@H](NC(=O)[C@H](NC(=O)c3ccc(NC(=O)C4(O)CC4)cc3)c3ccccc3)C(=O)N2[C@H]1C(=O)O [Example 2, sodium D(-)-α-(4-cyclopropanol-1-carbonyl-aminobenzoylamino)-benzylpenicillin] |  | > 256 | > 256 U/ml | < 1 |  | > 256 U/ml |  |  |  |
| CC1(C)S[C@@H]2[C@H](NC(=O)[C@H](NC(=O)c3ccccc3NC(=O)C3CC3)c3ccccc3)C(=O)N2[C@H]1C(=O)O [Example 49] | < 256 U/ml |  |  | < 1 |  |  | > 256 |  | MIC (Klebsiella 63): > 256 U/ml |
| CC1(C)S[C@@H]2[C@H](NC(=O)[C@H](NC(=O)Cc3ccc(NC(=O)C4CCC4)cc3)c3ccccc3)C(=O)N2[C@H]1C(=O)O [Example 76, sodium D(-)-α-[(4-cyclobutanecarbonylaminophenyl)-acetamido]-benzylpenicillin] | > 256 U/ml | > 256 | > 256 U/ml | < 1 | < 4 U/ml | > 256 U/ml |  | ~ 16 U/ml |  |
| CC1(C)S[C@@H]2[C@H](NC(=O)[C@H](NC(=O)CNC(=O)c3ccc(N)cc3)c3ccccc3)C(=O)N2[C@H]1C(=O)O [Example 70] |  | > 256 | > 256 U/ml | < 1 |  | > 256 U/ml |  |  |  |
| COc1cc(C(=O)Nc2ccc(C=CC(=O)N[C@@H](C(=O)N[C@@H]3C(=O)N4[C@@H]3SC(C)(C)[C@@H]4C(=O)O)c3ccccc3)cc2)cc(OC)c1OC [Example 79, sodium D(-)-α-[4-(3,4,5-trimethoxybenzoylamino-cinnamoylamino)]-benzylpenicillin] |  |  |  |  |  |  |  |  | Activity against Psdm. aerug. F 41 (minimum inhibitory concentration) (Psdm. aerug. F 41): 8-16 U/ml; Activity against Klebs. 63 (minimum inhibitory concentration) (Klebsiella 63): 32-64 U/ml; Activity against Proteus vulg. 1017 (minimum inhibitory concentration) (Proteus vulg. 1017): 128-256 U/ml; Activity against Staph. aureus 133 (minimum inhibitory concentration) (Staph. aureus 133): < 1 U/ml; Activity against E. coli 14 (minimum inhibitory concentration) (E. coli 14): 1-2 U/ml |
| CC1(C)S[C@@H]2[C@H](NC(=O)[C@H](NC(=O)c3cc(NC(=O)C4CC4)ccc3Cl)c3ccccc3)C(=O)N2[C@H]1C(=O)O [Example 53] | 128-256 U/ml |  |  | < 1 | 32 U/ml |  | > 256 | 2-4 U/ml | MIC (Klebsiella 63): 128-256 U/ml; MIC (Proteus vulg. 1017): > 256 U/ml; MIC (E. coli 183/58): 128-256 U/ml; MIC (E. coli C 165): 128-256 U/ml; MIC (Staph. aureus 1756): 32-64 U/ml |
| CC1(C)S[C@@H]2[C@H](NC(=O)[C@H](NC(=O)c3ccc(N)cc3)c3ccccc3)C(=O)N2[C@H]1C(=O)O [Example 34, sodium D(-)-α-(4-amino-benzoylamino)-benzylpenicillin] | 64 U/ml | > 256 |  | < 1 | ~ 16 U/ml | > 256 U/ml | 256 | ~ 4 U/ml | MIC (Klebsiella 63): 128 U/ml; MIC (Proteus vulg. 1017): 128 U/ml; MIC (E. coli C 165): 32 U/ml; MIC (Staph. aureus 1756): 32 U/ml |
| CNC(=S)Nc1ccc(C(=O)N[C@@H](C(=O)N[C@@H]2C(=O)N3[C@@H]2SC(C)(C)[C@@H]3C(=O)O)c2ccccc2)cc1 [Example 47] | 64 U/ml | > 256 | > 256 U/ml | < 1 | 16 U/ml | > 256 U/ml | 256 | 4 U/ml | MIC (Klebsiella 63): 128 U/ml; MIC (Proteus vulg. 1017): 32 U/ml; MIC (E. coli C 165): 32 U/ml; MIC (Staph. aureus 1756): 64 U/ml |
| CC1(C)S[C@@H]2[C@H](NC(=O)[C@H](NC(=O)c3ccc(NC(=O)c4ccc(C(F)(F)F)cc4)cc3)c3ccccc3)C(=O)N2[C@H]1C(=O)O [Example 23] |  |  |  | < 1 | < 1 U/ml |  |  |  | MIC (E. coli 183/58): < 1 U/ml |
| CNc1ccc(C(=O)N[C@@H](C(=O)N[C@@H]2C(=O)N3[C@@H]2SC(C)(C)[C@@H]3C(=O)O)c2ccccc2)cc1 [Example 43] |  | > 256 | > 256 U/ml | < 1 | ~ 16 U/ml | > 256 U/ml |  |  |  |
| CC1(C)S[C@@H]2[C@H](NC(=O)[C@H](NC(=O)c3ccc(NC(=O)C4CCCC4)cc3)c3ccc(O)cc3)C(=O)N2[C@H]1C(=O)O [Example 81] |  |  |  |  |  |  |  |  | Activity against Psdm. aerug. F 41 (minimum inhibitory concentration) (Psdm. aerug. F 41): 32-64 U/ml; Activity against Klebs. 63 (minimum inhibitory concentration) (Klebsiella 63): 128-256 U/ml; Activity against Proteus vulg. 1017 (minimum inhibitory concentration) (Proteus vulg. 1017): > 256 U/ml; Activity against Staph. aureus 133 (minimum inhibitory concentration) (Staph. aureus 133): < 1 U/ml; Activity against E. coli 14 (minimum inhibitory concentration) (E. coli 14): 4-8 U/ml |
| CC(C)(CN=[N+]=[N-])C(=O)Nc1ccc(C(=O)N[C@@H](C(=O)N[C@@H]2C(=O)N3[C@@H]2SC(C)(C)[C@@H]3C(=O)O)c2ccccc2)cc1 [Example 39] |  |  |  | < 1 |  | > 256 U/ml |  |  | MIC (Staph. aureus 1756): ~ 64 U/ml |
| COc1cc(C=CC(=O)Nc2ccc(C(=O)N[C@@H](C(=O)N[C@@H]3C(=O)N4[C@@H]3SC(C)(C)[C@@H]4C(=O)O)c3ccccc3)cc2)cc(OC)c1OC [Example 78, sodium D(-)-α-[4-(3,4,5-trimethoxycinnamoylamino-benzoylamino)]-benzylpenicillin] |  |  |  |  |  |  |  |  | Activity against Klebs. 63 (minimum inhibitory concentration) (Klebsiella 63): 32-64 U/ml; Activity against Psdm. aerug. Walter (minimum inhibitory concentration) (Psdm. aerug. Walter): 32-64 U/ml; Activity against Proteus vulg. 1017 (minimum inhibitory concentration) (Proteus vulg. 1017): 128-256 U/ml; Activity against E. coli 14 (minimum inhibitory concentration) (E. coli 14): 2-4 U/ml |
| CC1(C)S[C@@H]2[C@H](NC(=O)[C@H](NC(=O)c3ccc(NC(=O)c4cc(Cl)cc(Cl)c4)cc3)c3ccccc3)C(=O)N2[C@H]1C(=O)O [Example 20] |  |  | ~ 4 U/ml | < 1 | < 1 U/ml | ~ 256 U/ml |  | ~ 4 U/ml | MIC (Proteus vulg. 1017): ~ 4 U/ml; MIC (Staph. aureus 1756): ~ 4 U/ml |
